Assay results published in ChEMBL document CHEMBL4364298.
Activity calls are given as the source filed them. No cut-off for these calls is given here.

Molecular target: Histamine H1 receptor (Homo sapiens) (UniProt P35367)
Assay: Antagonist activity at H1R in human HeLa cells assessed as inhibition of histamine-induced intracellular calcium mobilization at 10 times Ki incubated for 18 to 20 hrs prior to Fluo-4NW dye addition for 1 hr followed by compound washout and subsequent stimulation with histamine at 5 mins interval and measured up to 2 hrs by fluorescence assay
Type: functional, cell-based

Chain of Histamine H1 receptor (Homo sapiens) (P35367 whole entry): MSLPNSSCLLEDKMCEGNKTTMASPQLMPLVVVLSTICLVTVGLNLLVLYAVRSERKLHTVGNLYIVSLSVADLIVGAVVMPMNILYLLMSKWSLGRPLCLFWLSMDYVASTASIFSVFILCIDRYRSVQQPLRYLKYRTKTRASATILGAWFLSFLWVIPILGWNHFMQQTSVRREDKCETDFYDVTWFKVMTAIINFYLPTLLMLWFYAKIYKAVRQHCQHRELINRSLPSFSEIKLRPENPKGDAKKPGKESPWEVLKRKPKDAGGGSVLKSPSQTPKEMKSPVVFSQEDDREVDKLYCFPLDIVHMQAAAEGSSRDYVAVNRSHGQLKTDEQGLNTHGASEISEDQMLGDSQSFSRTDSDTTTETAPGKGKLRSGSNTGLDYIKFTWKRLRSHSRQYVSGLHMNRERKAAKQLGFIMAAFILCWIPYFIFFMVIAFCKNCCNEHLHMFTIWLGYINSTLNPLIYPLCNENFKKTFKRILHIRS

| inhibition | SMILES |
| --- | --- |
| 100% | Clc1ccc2c(c1)CCc1cccnc1C2=C1CCN(CC2CCCC2)CC1 |
| 100% | Clc1ccc2c(c1)CCc1cccnc1C2=C1CCN(CC2CC2)CC1 |
| Active | Cc1cncc(CN2CCC(=C3c4ccc(Cl)cc4CCc4cccnc43)CC2)c1 |
| 100% | Clc1ccc2c(c1)CCc1cccnc1C2=C1CCN(CC2CCC2)CC1 |
